Activity calls are given as the source filed them. No cut-off for these calls is given here.
Key:
Calf thymus DNA [1] = experiment: Binding affinity to calf thymus DNA; assay type: nucleic-acid assay; details: Bos taurus
HL-60 = experiment: Cytotoxicity against human HL60 cells after 48 hrs by MTT assay; assay type: functional, cell-based; details: HL-60, 48 h
HeLa [2] = experiment: Cytotoxicity against human HeLa cells after 48 hrs by MTT assay; assay type: functional, cell-based
MCF7 = experiment: Cytotoxicity against human MCF7 cells after 48 hrs by MTT assay; assay type: functional, cell-based; details: MCF7, 48 h
HCT-8 = experiment: Cytotoxicity against human HCT8 cells after 48 hrs by MTT assay; assay type: functional, cell-based; details: HCT-8, 48 h
A-375 = experiment: Cytotoxicity against human A375 cells after 48 hrs by MTT assay; assay type: functional, cell-based; details: A-375, 48 h
HeLa [3] = experiment: Cell cycle arrest in human HeLa cells assessed as apoptotic cells at 21.08 uM by flow cytometry relative to control; assay type: functional
HeLa [4] = experiment: Cell cycle arrest in human HeLa cells by accumulation at G2 phase at 12.05 uM by flow cytometry (Rvb=12.86%); assay type: functional
HeLa [5] = experiment: Cell cycle arrest in human HeLa cells by accumulation at G1 phase at 3.01 uM by flow cytometry (Rvb=58.94%); assay type: functional
HeLa [6] = experiment: Cell cycle arrest in human HeLa cells by accumulation at G2 phase at 21.08 uM by flow cytometry (Rvb=12.86%); assay type: functional
HeLa [7] = experiment: Cell cycle arrest in human HeLa cells assessed as apoptotic cells at 12.05 uM by flow cytometry relative to control; assay type: functional
HeLa [8] = experiment: Cell cycle arrest in human HeLa cells assessed as apoptotic cells at 3.01 uM by flow cytometry relative to control; assay type: functional
HeLa [9] = experiment: Cell cycle arrest in human HeLa cells by accumulation at S phase at 21.08 uM by flow cytometry (Rvb=28.20%); assay type: functional
Calf thymus DNA [10] = experiment: Binding affinity to calf thymus DNA assessed as DNA intercalation at 30 uM by UV-Vis absorption studies; assay type: nucleic-acid assay; details: Bos taurus
HeLa [11] = experiment: Cell cycle arrest in human HeLa cells by accumulation at G1 phase at 12.05 uM by flow cytometry (Rvb=58.94%); assay type: functional
HeLa [12] = experiment: Cell cycle arrest in human HeLa cells by accumulation at S phase at 3.01 uM by flow cytometry (Rvb=28.20%); assay type: functional
Calf thymus DNA [13] = experiment: Binding affinity to calf thymus DNA assessed as increase in solution viscosity by viscometric titration; assay type: nucleic-acid assay; details: Bos taurus
HeLa [14] = experiment: Cell cycle arrest in human HeLa cells by accumulation at G2 phase at 3.01 uM by flow cytometry (Rvb=12.86%); assay type: functional
Calf thymus DNA [15] = experiment: Binding affinity to calf thymus DNA assessed as conformational change at 10 uM by CD spectra; assay type: nucleic-acid assay; details: Bos taurus
HeLa [16] = experiment: Cell cycle arrest in human HeLa cells by accumulation at G1 phase at 21.08 uM by flow cytometry (Rvb=58.94%); assay type: functional
HeLa [17] = experiment: Cell cycle arrest in human HeLa cells by accumulation at S phase at 12.05 uM by flow cytometry (Rvb=28.20%); assay type: functional
HeLa [18] = experiment: Cell cycle arrest in human HeLa cells by accumulation at G1 phase at 20.06 uM by flow cytometry (Rvb=58.94%); assay type: functional
HeLa [19] = experiment: Cell cycle arrest in human HeLa cells by accumulation at G1 phase at 11.46 uM by flow cytometry (Rvb=58.94%); assay type: functional
HeLa [20] = experiment: Cell cycle arrest in human HeLa cells by accumulation at G1 phase at 28.65 uM by flow cytometry (Rvb=58.94%); assay type: functional
HeLa [21] = experiment: Cell cycle arrest in human HeLa cells by accumulation at G2 phase at 28.65 uM by flow cytometry (Rvb=12.86%); assay type: functional
HeLa [22] = experiment: Cell cycle arrest in human HeLa cells by accumulation at S phase at 20.06 uM by flow cytometry (Rvb=28.20%); assay type: functional
HeLa [23] = experiment: Cell cycle arrest in human HeLa cells by accumulation at S phase at 28.65 uM by flow cytometry (Rvb=28.20%); assay type: functional
HeLa [24] = experiment: Cell cycle arrest in human HeLa cells by accumulation at S phase at 11.46 uM by flow cytometry (Rvb=28.20%); assay type: functional
HeLa [25] = experiment: Cell cycle arrest in human HeLa cells assessed as apoptotic cells at 28.65 uM by flow cytometry relative to control; assay type: functional
HeLa [26] = experiment: Cell cycle arrest in human HeLa cells by accumulation at G2 phase at 11.46 uM by flow cytometry (Rvb=12.86%); assay type: functional
HeLa [27] = experiment: Cell cycle arrest in human HeLa cells assessed as apoptotic cells at 20.06 uM by flow cytometry relative to control; assay type: functional
HeLa [28] = experiment: Cell cycle arrest in human HeLa cells assessed as apoptotic cells at 11.46 uM by flow cytometry relative to control; assay type: functional
HeLa [29] = experiment: Cell cycle arrest in human HeLa cells by accumulation at G2 phase at 20.06 uM by flow cytometry (Rvb=12.86%); assay type: functional

| K (Calf thymus DNA [1]) [×10⁵ /M] | SMILES | IC50 (HL-60) [µM] | IC50 (HeLa [2]) [µM] | IC50 (MCF7) [µM] | IC50 (HCT-8) [µM] | IC50 (A-375) [µM] | further results |
| --- | --- | --- | --- | --- | --- | --- | --- |
| 4.73 | CCCCNc1ccc2c3c(cccc13)C1=NC(=O)C(C(=O)O)=C12 | 24.1 | 30.3 | > 100 | 48.1 | 50.1 | – |
| 5.48 | CCN(CC)CCNc1ccc2c3c(cccc13)C1=NC(=O)C(C(=O)O)=C12 | 19.8 | 10.4 | 16.5 | 38.1 | 71.8 | – |
| 2.91 | O=C(O)C1=C2C(=NC1=O)c1cccc3c(N4CCCCC4)ccc2c13 | 20.5 | 20.6 | 14.5 | 24.4 | 18.4 | Activity (HeLa [3]): 11.95%; Activity (HeLa [4]): 9.46%; Activity (HeLa [5]): 64.63%; Activity (HeLa [6]): 12.75%; Activity (HeLa [7]): 4.81%; Activity (HeLa [8]): 4.34%; Activity (HeLa [9]): 33.58%; Activity (Calf thymus DNA [10]): Active; Activity (HeLa [11]): 60.02%; Activity (HeLa [12]): 31.63%; Activity (Calf thymus DNA [13]): Dose-dependent effect; Activity (HeLa [14]): 3.75%; Activity (Calf thymus DNA [15]): Active; Activity (HeLa [16]): 53.67%; Activity (HeLa [17]): 30.52% |
| – | N#CC1=C2C(=NC1=O)c1cccc3c(N4CCSCC4)ccc2c13 | 28.6 | 15.7 | 41.2 | 25.8 | 48.7 | – |
| 2.69 | O=C(O)C1=C2C(=NC1=O)c1cccc3c(N4CCSCC4)ccc2c13 | 76.9 | 48.9 | > 100 | > 100 | > 100 | – |
| 2.34 | O=C(O)C1=C2C(=NC1=O)c1cccc3c(N4CCOCC4)ccc2c13 | 42.2 | 36.2 | 18 | > 100 | 79.4 | – |
| 5.96 | CN(C)CCNc1ccc2c3c(cccc13)C1=NC(=O)C(C(=O)O)=C12 | 47.9 | 89.7 | 97 | > 100 | > 100 | – |
| 6.13 | CN1CCN(c2ccc3c4c(cccc24)C2=NC(=O)C(C(=O)O)=C23)CC1 | 51 | 17.2 | 14.9 | 72.1 | 28.5 | – |
| – | COC(=O)C1=C2C(=NC1=O)c1cccc3c(N4CCSCC4)ccc2c13 | > 100 | 26.9 | 68 | > 100 | > 100 | – |
| 6.75 | O=C(O)C1=C2C(=NC1=O)c1cccc3c(NCc4cccs4)ccc2c13 | 90 | 84.3 | > 100 | > 100 | > 100 | – |
| 6.01 | CN(C)CCCNc1ccc2c3c(cccc13)C1=NC(=O)C(C(=O)O)=C12 | 13.1 | 29.3 | 70.5 | > 100 | > 100 | Activity (HeLa [18]): 35.97%; Activity (HeLa [19]): 50.87%; Activity (HeLa [20]): 34.1%; Activity (HeLa [21]): 17.49%; Activity (HeLa [22]): 45.43%; Activity (HeLa [23]): 48.41%; Activity (Calf thymus DNA [10]): Active; Activity (HeLa [24]): 35.96%; Activity (HeLa [25]): 13.89%; Activity (HeLa [26]): 13.17%; Activity (HeLa [27]): 11.13%; Activity (Calf thymus DNA [13]): Dose-dependent effect; Activity (HeLa [28]): 5.22%; Activity (HeLa [29]): 18.6%; Activity (Calf thymus DNA [15]): Active |
